Laboratory results reported in patent publication EP1117659B1, “SUBSTITUTED 3-CYANOQUINOLINES AS PROTEIN TYROSINE KINASES INHIBITORS” (Wyeth Holdings Corporation, priority 1998, dated 2000).
Converted amounts (≈) assume the structure as drawn.

Legend:
MDA-MB-435 = test: Inhibition of Cancer Cell Growth as Measured by Cell Number (Sulforhodamine B); format: cell-based, Human; details: Homo sapiens, MDA-MB-435, 48 h, 48 hours exposure
Experimental: (§1) Human tumor cell lines were plated in 96-well plates (250 µl/well, 1-6 x 10^4 cells/ml) in RPMI 1640 medium, containing 5% FBS (Fetal Bovine Serum). […] After 48 hours exposure to test compounds, cells were fixed with trichloroacetic acid, and stained with Sulforhodamine B. After washing with trichloroacetic acid, bound dye was solubilized in 10 mM Tris base and optical density was determined using plate reader. Under conditions of the assay the optical density is proportional to the number of cells in the well. […] The test procedure is described in details by Philip Skehan et. al, J.Natl. Canc. Inst., 82, 1107-1112 (1990). […] Information about some of the cell lines used in these test procedures is available from the American Type Tissue Collection: Cell Lines and Hybridomas, 1994 Reference Guide, 8th Edition.

SW620 = test: as above; format: cell-based, Human; details: Homo sapiens, SW-620, 48 h, 48 hours exposure
Experimental: as §1

SK-BR3 = test: as above; format: cell-based, Human; details: Homo sapiens, SK-BR-3, 48 h, 48 hours exposure
Experimental: as §1

A431 = test: as above; format: cell-based, Human; details: Homo sapiens, A-431, 48 h, 48 hours exposure
Experimental: as §1

[1] = test system: Human Colon Carcinoma SW620; test: In Vivo Inhibition of the Growth of Human Colon Carcinoma SW620 in mice; details: for S/T = No. Survivors/No. Treated on Day +21 post tumor staging / %T/C Day 7 / %T/C Day 14 / Relative Tumor Growth Day 14 / %T/C Day 21 / Relative Tumor Growth Day 21 / Relative Tumor Growth Day 7: days 1 through 20; for tumor growth was inhibited by: 30 mg/kg i.p. during days 1-20
Experimental: A unit of 7 X 10^6 cells were injected SC into mice. […] Control animals received vehicle only. Tumor mass was determined every 7 days [(length X width^2)/2] for 28 days post staging.

[2] = molecular target: T1, Kinase insert Domain containing Receptor (KDR: the catalytic domain of the VEGF receptor) (Homo sapiens, UniProt P35968); test: Inhibition of Kinase insert Domain containing Receptor (KDR), radioactive phosphorylation of Glu:Tyr copolymer; format: biochemical; details: IC50, substrate phosphorylation
T1 construct: KDR: the catalytic domain of the VEGF receptor
Outline: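 Radiometric read-out: acid-precipitable 32P/33P from labelled ATP on an E:Y 4:1 copolymer, ATP added to start. KDR catalytic domain was incubated with compound, Mg++ and vanadate phosphatase blocker, buffered at pH 7.2; compounds may have several replicate entries.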

A2780 = test: Inhibition of Cancer Cell Growth as Measured by Cell Number (Sulforhodamine B); format: cell-based; details: Homo sapiens, 48 hours exposure
Experimental: as §1

DDP = test: as above; format: cell-based; details: Homo sapiens; 48 hours exposure
Experimental: as §1

[3] = molecular target: T2, epidermal growth factor receptor kinase (EGF-R Kinase, recombinant enzyme; His-tagged cytoplasmic domain of EGFR) (Homo sapiens, UniProt P00533); test: Inhibition of Epidermal Growth Factor Receptor Kinase (EGF-R) using recombinant enzyme, RR-SRC peptide phosphorylation, 33P-ATP; format: biochemical
T2 construct: EGFR cDNA encoding amino acids 645 - 1186 preceded by Met-Ala-(His)6; Met-Ala-(His)6 (N); made in house; host or cells: Sf9 insect cells, recombinant baculovirus vHcEGFR52
Outline: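 His-tagged EGFR cytoplasmic domain (aa 645–1186, baculovirus/Sf9) preincubated with compound 10 min on ice, then RR-SRC peptide (80 µM final) and γ-33P-ATP added. Reaction run 90 min at room temperature; peptide-bound 33P counted on P81 filters, background-corrected. IC50 from dose-response of ≥3 concentrations.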

3T3 = test: Inhibition of Cancer Cell Growth as Measured by Cell Number (Sulforhodamine B); format: cell-based; details: Mus musculus, NIH3T3; 48 hours exposure
Experimental: as §1

3T3/c-erbb2 = test: as above; format: cell-based; details: 48 hours exposure
Experimental: as §1

[4] = molecular target: Epithelial Cell Kinase (ECK) (Homo sapiens, UniProt P29317); test: Inhibition of Epithelial Cell Kinase (ECK), immobilized biotinylated peptide, HRP anti-phosphotyrosine readout; format: biochemical; details: IC50, substrate phosphorylation
Outline: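 Biotinylated peptide substrate immobilized on neutravidin plates, reacted with ECK, test drug, Mg++ and sodium vanadate at pH 7.2; ATP added to start phosphorylation. After washing, phosphopeptide detected with HRP-conjugated anti-phosphotyrosine antibody, HRP activity reflecting substrate phosphorylation. Repeat entries are separate tests of the same compound.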

T2 sequence (P00533 669-1210): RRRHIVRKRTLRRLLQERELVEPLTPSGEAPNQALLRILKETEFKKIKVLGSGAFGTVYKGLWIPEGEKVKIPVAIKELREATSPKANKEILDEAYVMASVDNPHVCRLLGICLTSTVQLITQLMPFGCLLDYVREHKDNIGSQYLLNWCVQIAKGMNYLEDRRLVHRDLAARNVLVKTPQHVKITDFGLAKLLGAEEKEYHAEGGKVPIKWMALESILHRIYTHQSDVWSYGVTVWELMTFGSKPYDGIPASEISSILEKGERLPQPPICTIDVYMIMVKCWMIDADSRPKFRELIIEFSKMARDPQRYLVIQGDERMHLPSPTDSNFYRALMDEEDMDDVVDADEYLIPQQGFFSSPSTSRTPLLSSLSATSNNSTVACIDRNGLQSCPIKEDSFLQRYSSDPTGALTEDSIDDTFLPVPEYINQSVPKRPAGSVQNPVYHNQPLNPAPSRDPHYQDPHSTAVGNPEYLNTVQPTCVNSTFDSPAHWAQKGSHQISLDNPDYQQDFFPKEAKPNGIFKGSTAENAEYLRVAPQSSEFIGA
T1 sequence (P35968 834-1162 limits assumed): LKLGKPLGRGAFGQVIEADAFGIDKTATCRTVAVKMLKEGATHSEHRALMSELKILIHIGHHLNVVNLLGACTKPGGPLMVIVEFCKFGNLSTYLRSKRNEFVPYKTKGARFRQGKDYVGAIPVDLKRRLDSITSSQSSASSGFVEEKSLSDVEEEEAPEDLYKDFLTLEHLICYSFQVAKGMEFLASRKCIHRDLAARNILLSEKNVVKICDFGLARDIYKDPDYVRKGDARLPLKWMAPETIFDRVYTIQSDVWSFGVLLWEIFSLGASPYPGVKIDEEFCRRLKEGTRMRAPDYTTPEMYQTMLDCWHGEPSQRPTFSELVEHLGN
Epithelial Cell Kinase (ECK), sequence (P29317 24-976, species assumed): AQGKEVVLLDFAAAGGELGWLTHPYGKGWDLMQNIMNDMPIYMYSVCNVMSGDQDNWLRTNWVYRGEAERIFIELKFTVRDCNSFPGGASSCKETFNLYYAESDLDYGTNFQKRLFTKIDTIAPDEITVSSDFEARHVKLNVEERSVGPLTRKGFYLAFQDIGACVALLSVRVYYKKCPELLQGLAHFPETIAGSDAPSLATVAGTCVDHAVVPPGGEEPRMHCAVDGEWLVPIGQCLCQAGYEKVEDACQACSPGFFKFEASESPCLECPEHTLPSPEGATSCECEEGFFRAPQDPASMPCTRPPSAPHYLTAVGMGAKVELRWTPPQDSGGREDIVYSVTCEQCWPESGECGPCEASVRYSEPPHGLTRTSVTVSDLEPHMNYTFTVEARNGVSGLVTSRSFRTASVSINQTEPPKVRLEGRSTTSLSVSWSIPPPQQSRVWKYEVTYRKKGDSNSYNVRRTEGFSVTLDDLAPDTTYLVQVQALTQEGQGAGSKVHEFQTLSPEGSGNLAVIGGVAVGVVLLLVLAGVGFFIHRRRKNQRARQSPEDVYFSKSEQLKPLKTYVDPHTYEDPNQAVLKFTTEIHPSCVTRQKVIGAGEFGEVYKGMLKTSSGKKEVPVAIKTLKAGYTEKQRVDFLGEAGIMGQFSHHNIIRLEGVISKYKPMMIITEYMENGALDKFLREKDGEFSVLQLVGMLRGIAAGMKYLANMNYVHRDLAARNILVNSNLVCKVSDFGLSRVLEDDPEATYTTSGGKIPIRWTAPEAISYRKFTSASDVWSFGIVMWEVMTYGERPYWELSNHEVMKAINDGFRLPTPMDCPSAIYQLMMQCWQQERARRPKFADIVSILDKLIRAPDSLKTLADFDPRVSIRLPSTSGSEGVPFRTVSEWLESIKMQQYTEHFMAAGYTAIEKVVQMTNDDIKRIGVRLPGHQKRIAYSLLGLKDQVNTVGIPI

SMILES: CCOc1cc2ncc(C#N)c(Nc3ccc4cn[nH]c4c3)c2cc1OCC [Example 99, 6,7-Diethoxy-4-(1H-indazol-6-ylamino)-quinoline-3-carbonitrile]
- IC50 (MDA-MB-435): 0.02 µg/mL (≈ 0.0536 µM)
- IC50 (SW620): 0.033 µg/mL (≈ 0.0884 µM)
- IC50 (SK-BR3): 0.016 µg/mL (≈ 0.0428 µM)
- IC50 (A431): 0.025 µg/mL (≈ 0.0669 µM)
- S/T = No. Survivors/No. Treated on Day +21 post tumor staging ([1]; 3 mg/kg/dose IP): 5/5
- %T/C Day 7 ([1]; 3 mg/kg/dose IP): 93%
- %T/C Day 14 ([1]; 3 mg/kg/dose IP): 108%
- Relative Tumor Growth Day 14 ([1]; 3 mg/kg/dose IP): 12.53
- %T/C Day 21 ([1]; 3 mg/kg/dose IP): 147%
- Relative Tumor Growth Day 21 ([1]; 3 mg/kg/dose IP): 16.47
- S/T = No. Survivors/No. Treated on Day +21 post tumor staging ([1]; 10 mg/kg/dose IP): 5/5
- %T/C Day 7 ([1]; 10 mg/kg/dose IP): 90%
- Relative Tumor Growth Day 7 ([1]; 10 mg/kg/dose IP): 3.69
- %T/C Day 14 ([1]; 10 mg/kg/dose IP): 68%
- Relative Tumor Growth Day 14 ([1]; 10 mg/kg/dose IP): 7.88
- %T/C Day 21 ([1]; 10 mg/kg/dose IP): 87%
- Relative Tumor Growth Day 21 ([1]; 10 mg/kg/dose IP): 9.75
- tumor growth was inhibited by ([1]; day 7): 56%
- tumor growth was inhibited by ([1]; day 14): 67%
- tumor growth was inhibited by ([1]; day 21): 60%
- S/T = No. Survivors/No. Treated on Day +21 post tumor staging ([1]; 30 mg/kg/dose IP): 4/5
- %T/C Day 7 ([1]; 30 mg/kg/dose IP): 44%
- Relative Tumor Growth Day 7 ([1]; 30 mg/kg/dose IP): 1.81
- %T/C Day 14 ([1]; 30 mg/kg/dose IP): 33%
- Relative Tumor Growth Day 14 ([1]; 30 mg/kg/dose IP): 3.85
- %T/C Day 21 ([1]; 30 mg/kg/dose IP): 40%
- Relative Tumor Growth Day 21 ([1]; 30 mg/kg/dose IP): 4.44
- IC50 [2]: 21.4 µM
- IC50 (A2780): 0.032 µg/mL (≈ 0.0857 µM)
- IC50 (DDP): 0.036 µg/mL (≈ 0.0964 µM)

SMILES: CCOc1cc2ncc(C#N)c(Nc3ccc4cc[nH]c4c3)c2cc1OCC [Example 101, 6,7-Diethoxy-4-(1H-indol-6-ylamino)-quinoline-3-carbonitrile]
- IC50 (SW620): 0.326 µg/mL (≈ 0.875 µM)
- IC50 (A431): 0.216 µg/mL (≈ 0.58 µM)
- inhibition at 0.5 µM ([3]; read-out: %Inh @ 0.5 µM): 27%
- IC50 ([3]; recombinant enzyme, 90 min at room temperature): > 1 µM
- IC50 [2]: 5.37 µM
- IC50 (A2780): 0.231 µg/mL (≈ 0.62 µM)
- IC50 (3T3): 1.53 µg/mL (≈ 4.11 µM)
- IC50 (3T3/c-erbb2): 0.933 µg/mL (≈ 2.51 µM)
- IC50 (DDP): 0.313 µg/mL (≈ 0.84 µM)
- IC50 [4]: > 53.7 µM
